Experimental data published in ChEMBL document CHEMBL1152576, “E-Combretastatin and E-resveratrol structural modifications: antimicrobial and cancer cell growth inhibitory beta-E-nitrostyrenes” (Bioorg Med Chem, 2009).
≈ marks a conversion by molar mass, not a printed value. Calls of active or inactive are those of the source. The rule behind the calls is not given here.

Legend:
Candida albicans [1] = assay: Antifungal activity against Candida albicans ATCC 90028 after 48 hrs by broth microdilution susceptibility assay; format: functional; settings: ATCC 90028, 48 h
Enterobacter cloacae [2] = assay: Antimicrobial activity against Enterobacter cloacae ATCC 13047 after 24 hrs by broth microdilution susceptibility assay; format: functional; settings: ATCC 13047, 24 h
NCI-H460 = assay: Cytotoxicity against human NCI-H460 cells after 48 hrs by sulforhodamine B assay; format: functional; settings: NCI-H460, 48 h
Enterococcus faecalis [3] = assay: Antimicrobial activity against Enterococcus faecalis ATCC 29212 assessed clear zone in inhibition per disk by CLSI disk diffusion susceptibility assay; format: functional
[4] = tested on: Stenotrophomonas maltophilia; assay: Antimicrobial activity against Stenotrophomonas maltophilia ATCC 13637 by broth microdilution susceptibility assay; format: functional
Enterococcus faecalis [5] = assay: Antimicrobial activity against Enterococcus faecalis ATCC 29212 after 24 hrs by broth microdilution susceptibility assay; format: functional; settings: ATCC 29212, 24 h
SK-MEL-5 = assay: Cytotoxicity against human SK-MEL-5 cells after 48 hrs by sulforhodamine B assay; format: functional
Streptococcus pneumoniae [6] = assay: Antimicrobial activity against Streptococcus pneumoniae ATCC 6303 after 24 hrs by broth microdilution susceptibility assay; format: functional; settings: ATCC 6303, 24 h
A498 = assay: Cytotoxicity against human A498 cells after 48 hrs by sulforhodamine B assay; format: functional
Enterococcus faecalis [7] = assay: Antimicrobial activity against Enterococcus faecalis ATCC 29212 by broth microdilution susceptibility assay; format: functional
Neisseria gonorrhoeae [8] = assay: Antimicrobial activity against Neisseria gonorrhoeae ATCC 49226 assessed clear zone of inhibition measured per disk by CLSI disk diffusion susceptibility assay; format: functional
Staphylococcus aureus [9] = assay: Antimicrobial activity against Staphylococcus aureus ATCC 29213 by broth microdilution susceptibility assay; format: functional
Cryptococcus neoformans [10] = assay: Antifungal activity against Cryptococcus neoformans ATCC 90112 after 72 hrs by broth microdilution susceptibility assay; format: functional; settings: ATCC 90112, 72 h
Micrococcus luteus [11] = assay: Antimicrobial activity against Micrococcus luteus Presque Isle 456 by broth microdilution susceptibility assay; format: functional
Escherichia coli [12] = assay: Antimicrobial activity against Escherichia coli ATCC 25922 after 24 hrs by broth microdilution susceptibility assay; format: functional; settings: ATCC 25922, 24 h
Neisseria gonorrhoeae [13] = assay: Antimicrobial activity against Neisseria gonorrhoeae ATCC 49226 by broth microdilution susceptibility assay; format: functional
Candida albicans [14] = assay: Antifungal activity against Candida albicans ATCC 90028 after 24 hrs by broth microdilution susceptibility assay; format: functional; settings: ATCC 90028, 24 h
[15] = tested on: Stenotrophomonas maltophilia; assay: Antimicrobial activity against Stenotrophomonas maltophilia ATCC 13637 assessed clear zone in inhibition per disk by CLSI disk diffusion susceptibility assay; format: functional
[16] = tested on: Stenotrophomonas maltophilia; assay: Antimicrobial activity against Stenotrophomonas maltophilia ATCC 13637 after 24 hrs by broth microdilution susceptibility assay; format: functional; settings: ATCC 13637, 24 h
Staphylococcus aureus [17] = assay: Antimicrobial activity against Staphylococcus aureus ATCC 29213 assessed clear zone in inhibition per disk by CLSI disk diffusion susceptibility assay; format: functional
Staphylococcus aureus [18] = assay: Antimicrobial activity against Staphylococcus aureus ATCC 29213 after 24 hrs by broth microdilution susceptibility assay; format: functional; settings: ATCC 29213, 24 h
Candida albicans [19] = assay: Antimicrobial activity against Candida albicans ATCC 90028 assessed clear zone in inhibition per disk by CLSI disk diffusion susceptibility assay; format: functional
SF-268 = assay: Cytotoxicity against human SF268 cells after 48 hrs by sulforhodamine B assay; format: functional
KM-20L2 = assay: Cytotoxicity against human KM20L2 cells after 48 hrs by sulforhodamine B assay; format: functional; settings: KM-20L2, 48 h
Enterobacter cloacae [20] = assay: Antimicrobial activity against Enterobacter cloacae ATCC 13047 assessed clear zone in inhibition per disk by CLSI disk diffusion susceptibility assay; format: functional
Escherichia coli [21] = assay: Antimicrobial activity against Escherichia coli ATCC 25922 by broth microdilution susceptibility assay; format: functional
P388 = assay: Cytotoxicity against mouse P388 cells after 48 hrs by sulforhodamine B assay; format: functional; settings: P388, 48 h, read-out: ED50 (the source's name)
OVCAR-3 = assay: Cytotoxicity against human OVCAR-3 cells after 48 hrs by sulforhodamine B assay; format: functional
[22] = Inhibition of tubulin polymerization
Micrococcus luteus [23] = assay: Antimicrobial activity against Micrococcus luteus Presque Isle 456 assessed clear zone in inhibition per disk by CLSI disk diffusion susceptibility assay; format: functional
SF-295 = assay: Cytotoxicity against human SF295 cells after 48 hrs by sulforhodamine B assay; format: functional; settings: SF-295, 48 h
Enterobacter cloacae [24] = assay: Antimicrobial activity against Enterobacter cloacae ATCC 13047 by broth microdilution susceptibility assay; format: functional
Streptococcus pneumoniae [25] = assay: Antimicrobial activity against Streptococcus pneumoniae ATCC 6303 by broth microdilution susceptibility assay; format: functional
Neisseria gonorrhoeae [26] = assay: Antimicrobial activity against Neisseria gonorrhoeae ATCC 49226 after 24 hrs by broth microdilution susceptibility assay; format: functional; settings: ATCC 49226, 24 h
DU-145 = assay: Cytotoxicity against human DU145 cells after 48 hrs by sulforhodamine B assay; format: functional; settings: DU-145, 48 h
MCF7 = assay: Cytotoxicity against human MCF7 cells after 48 hrs by sulforhodamine B assay; format: functional; settings: MCF7, 48 h
Cryptococcus neoformans [27] = assay: Antimicrobial activity against Cryptococcus neoformans ATCC 90112 assessed clear zone in inhibition per disk by CLSI disk diffusion susceptibility assay; format: functional
Streptococcus pneumoniae [28] = assay: Antimicrobial activity against Streptococcus pneumoniae ATCC 6303 assessed clear zone in inhibition per disk by CLSI disk diffusion susceptibility assay; format: functional
Escherichia coli [29] = assay: Antimicrobial activity against Escherichia coli ATCC 25922 assessed clear zone in inhibition per disk by CLSI disk diffusion susceptibility assay; format: functional
BXPC-3 = assay: Cytotoxicity against human BxPC3 cells after 48 hrs by sulforhodamine B assay; format: functional; settings: BXPC-3, 48 h

COc1ccccc1/C=C/[N+](=O)[O-]
MIC (Candida albicans [1]): 8 µg/mL (≈ 44.6 µM)
MBC (Enterobacter cloacae [2]): > 64 µg/mL
GI50 (NCI-H460): 1.7 µg/mL (≈ 9.49 µM)
MIC (Enterococcus faecalis [3]): 0.78 µg
MIC [4]: 32 µg/mL (≈ 179 µM)
MBC (Enterococcus faecalis [5]): > 64 µg/mL
GI50 (SK-MEL-5): inactive
MBC (Streptococcus pneumoniae [6]): > 64 µg/mL
GI50 (A498): inactive
MIC (Enterococcus faecalis [7]): 64 µg/mL (≈ 357 µM)
MIC (Neisseria gonorrhoeae [8]): 0.78 µg
MIC (Staphylococcus aureus [9]): 64 µg/mL (≈ 357 µM)
MIC (Cryptococcus neoformans [10]): > 64 µg/mL
MIC (Micrococcus luteus [11]): > 64 µg/mL
MBC (Escherichia coli [12]): 64 µg/mL (≈ 357 µM)
MIC (Neisseria gonorrhoeae [13]): 2 µg/mL (≈ 11.2 µM)
MFC (Candida albicans [14]): 16 µg/mL (≈ 89.3 µM)
MIC [15]: 12.5 µg
MBC [16]: 64 µg/mL (≈ 357 µM)
MIC (Staphylococcus aureus [17]): 6.25 µg
MBC (Staphylococcus aureus [18]): > 64 µg/mL
MIC (Candida albicans [19]): 1.56 µg
GI50 (SF-268): inactive
GI50 (KM-20L2): 1.5 µg/mL (≈ 8.37 µM)
MIC (Enterobacter cloacae [20]): 25 µg
MIC (Escherichia coli [21]): 64 µg/mL (≈ 357 µM)
EC50 (P388): 0.51 µg/mL (≈ 2.85 µM)
GI50 (OVCAR-3): inactive
IC50 [22]: 7.4 µM
MIC (Micrococcus luteus [23]): >100 µg
GI50 (SF-295): 1.7 µg/mL (≈ 9.49 µM)
MIC (Enterobacter cloacae [24]): 64 µg/mL (≈ 357 µM)
MIC (Streptococcus pneumoniae [25]): 64 µg/mL (≈ 357 µM)
MBC (Neisseria gonorrhoeae [26]): 2 µg/mL (≈ 11.2 µM)
GI50 (DU-145): 1.5 µg/mL (≈ 8.37 µM)
GI50 (MCF7): 0.48 µg/mL (≈ 2.68 µM)
MIC (Cryptococcus neoformans [27]): 0.78 µg
MIC (Streptococcus pneumoniae [28]): 25 µg
MIC (Escherichia coli [29]): 50 µg
GI50 (BXPC-3): 1.6 µg/mL (≈ 8.93 µM)
